Reference: patent US20240218022A1, “ANTI-VISTA MACROCYCLIC PEPTIDES AND COMPOSITIONS” (BRISTOL-MYERS SQUIBB COMPANY, priority 2022, published 2024)
Where two headings read alike, the source gives them in different places. Values belong to the compound of their own block, whether it stands above or below them. Starred links: 1 amine or outer side, 2 acyl side, 3 side chain; linkers in the order of their positions; H or OH if unused. Positions of bridges follow the written chain, without caps; N, C: chain ends. Non-standard residues stand in square brackets, D forms with d. Residues, ends and D or L forms follow the SMILES beside them. ξ: configuration not given here. Trp(1-Me) = Cn1cc(C[C@H](N)C(=O)O)c2ccccc21; N(3-phenylpropyl)Gly = O=C(O)CNCCCc1ccccc1; Phe(3-Br) = N[C@@H](Cc1cccc(Br)c1)C(=O)O; Phe(3-Me) = Cc1cccc(C[C@H](N)C(=O)O)c1; γGlu = O=C(O)[C@H](CCC(=O)[*:2])N[*:1]; 2Nal = N[C@@H](Cc1ccc2ccccc2c1)C(=O)O; βAsp = O=C(O)[C@H](CC(=O)[*:2])N[*:1]; Cit = NC(=O)NCCC[C@H](N)C(=O)O; NMeL = CN[C@@H](CC(C)C)C(=O)O; Ahp(2) = CCCCC[C@H](N)C(=O)O; NMeNle = CCCC[C@H](NC)C(=O)O; Tle = CC(C)(C)[C@H](N)C(=O)O; NMeS = CN[C@@H](CO)C(=O)O; NHexGly = CCCCCCNCC(=O)O; Nle = CCCC[C@H](N)C(=O)O; Orn = NCCC[C@H](N)C(=O)O; Aun = NCCCCCCCCCCC(=O)O; ξD = NC(CC(=O)O)C(=O)O; AEEA = NCCOCCOCC(=O)O

Biological target: T1, mouse VISTA (mVISTA) (Mus musculus, UniProt Q9D659)
T1 construct: expressed in transfected cells; host or cells: Human embryonic kidney 293T cells
T1 sequence (Q9D659 33-308): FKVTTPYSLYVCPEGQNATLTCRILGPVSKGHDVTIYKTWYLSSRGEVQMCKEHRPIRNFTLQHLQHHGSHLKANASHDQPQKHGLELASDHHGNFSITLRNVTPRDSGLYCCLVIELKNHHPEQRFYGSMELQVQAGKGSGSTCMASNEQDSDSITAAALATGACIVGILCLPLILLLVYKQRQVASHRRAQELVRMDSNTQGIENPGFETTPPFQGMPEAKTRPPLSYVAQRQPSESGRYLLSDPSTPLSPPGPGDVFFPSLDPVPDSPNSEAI
Assay: Cell-Based Binding High-Content Assay For mVISTA (HC CBA mVISTA)
Outline: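 This high-content binding assay uses HEK293T cells expressing murine VISTA, measuring displacement of 2 nM biotinylated peptide by fluorescent streptavidin imaging. IC50 values come from four-parameter logistic fitting.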

[1] = 293T cells expressing mouse VISTA, competition with biotinylated peptide (2 nM), read-out: HC CBA mVISTA IC50
[2] = the 20th table, scaffold drawing 23, read-out: HC CBA mVISTA IC50

- IC50 (cell-based binding high-content assay, mVISTA, read-out: HC CBA miPr ISTA IC50): 19 nM
SMILES: CCCCCCN1CC(=O)N[C@@H](Cc2ccc(O)cc2)C(=O)N[C@@H](CCCC)C(=O)N[C@@H](CC(N)=O)C(=O)N[C@@H](CCCNC(N)=O)C(=O)N[C@@H](CC(C)C)C(=O)N[C@@H](CCCCC)C(=O)N2CCC[C@H]2C(=O)N[C@@H](C(C)C)C(=O)N[C@@H](CO)C(=O)N[C@H](C(=O)NCC(=O)NCCOCCOCC(=O)N[C@@H](CC(=O)O)C(=O)NCCOCCOCC(=O)NCCCCCCCCCCC(=O)O)CSCC(=O)N[C@@H](Cc2ccc3ccccc3c2)C(=O)N[C@@H](Cc2ccc(O)cc2)C(=O)N[C@@H](CC(=O)O)C1=O [compound 2016] ({CH2CO}-[2Nal]YD[NHexGly]Y[Nle]N[Cit]L[Ahp(2)]PVSCG[AEEA]D[AEEA][Aun]-OH; thioether N-14)

- IC50 [1]: 14.7 nM
SMILES: CCCCCCN1CC(=O)N[C@@H](Cc2ccc(O)cc2)C(=O)N[C@@H](CCCCC)C(=O)N[C@@H](CC(N)=O)C(=O)N[C@@H](CCCNC(=N)N)C(=O)N[C@@H](Cc2c[nH]c3ccccc23)C(=O)N[C@@H](CCCCC)C(=O)N2CCC[C@H]2C(=O)N[C@@H](C(C)C)C(=O)N[C@@H](CO)C(=O)N[C@H](C(=O)NCC(=O)O)CSCC(=O)N[C@@H](Cc2ccccc2)C(=O)N[C@@H](Cc2ccc(O)cc2)C(=O)N[C@@H](CC(=O)O)C1=O [Example 1098] ({CH2CO}-FYD[NHexGly]Y[Ahp(2)]NRW[Ahp(2)]PVSCG-OH; thioether N-14)

- IC50 [2]: 40.4 nM
SMILES: CCCCCCN1CC(=O)N[C@@H](Cc2ccc(O)cc2)C(=O)N[C@@H](CCCC)C(=O)N[C@@H](CC(N)=O)C(=O)N[C@@H](CCCNC(=N)N)C(=O)N[C@@H](CC(C)C)C(=O)N[C@@H](CCCCC)C(=O)N2CCC[C@H]2C(=O)N[C@@H](C(C)C)C(=O)N[C@@H](CO)C(=O)N[C@H](C(=O)NCC(N)=O)CSCC(=O)N[C@@H](Cc2ccc(O)cc2)C(=O)N[C@@H](Cc2ccc(O)cc2)C(=O)N[C@@H](CC(=O)O)C1=O [compound 1474] ({CH2CO}-YYD[NHexGly]Y[Nle]NRL[Ahp(2)]PVSCG-NH2; thioether N-14)

- IC50 [1]: 17.7 nM
SMILES: CCCCCCN1CC(=O)N[C@@H](Cc2ccc(O)cc2)C(=O)N[C@@H](CC(C)C)C(=O)N[C@@H](CC(N)=O)C(=O)N[C@@H](CCCNC(=N)N)C(=O)N[C@@H](CC(C)C)C(=O)N[C@@H](CCCCC)C(=O)N2CCC[C@H]2C(=O)N[C@@H](C(C)C)C(=O)N[C@@H](CO)C(=O)N[C@H](C(=O)NCC(=O)O)CSCC(=O)N[C@@H](Cc2ccccc2)C(=O)N[C@@H](Cc2ccc(O)cc2)C(=O)N[C@@H](CC(=O)O)C1=O [Example 1043] ({CH2CO}-FYD[NHexGly]YLNRL[Ahp(2)]PVSCG-OH; thioether N-14)

- IC50 (cell-based binding high-content assay, read-out: HC CBA miPrISTA IC50): 14.6 nM
SMILES: CCCCCCN1CC(=O)N[C@@H](Cc2ccc(O)cc2)C(=O)N[C@@H](C(C)C)C(=O)NCC(=O)N[C@@H](CCCNC(N)=O)C(=O)N[C@@H](CC(C)C)C(=O)N[C@@H](CCCCC)C(=O)N2CCC[C@H]2C(=O)N[C@@H](C(C)C)C(=O)N[C@@H](CC(=O)O)C(=O)N[C@H](C(=O)NCCOCCOCC(=O)N[C@@H](CC(=O)O)C(=O)NCCOCCOCC(=O)NCCCCCCCCCCC(=O)O)CSCC(=O)N[C@@H](Cc2ccc3ccccc3c2)C(=O)N[C@@H](Cc2ccc(O)cc2)C(=O)N[C@@H](CC(=O)O)C1=O [compound 2308] ({CH2CO}-[2Nal]YD[NHexGly]YVG[Cit]L[Ahp(2)]PVDC[AEEA]D[AEEA][Aun]-OH; thioether N-14)

- IC50 [1]: 31.8 nM
SMILES: CCCCC[C@@H]1NC(=O)[C@H](CCCC)N(C)C(=O)[C@H](CCCN)NC(=O)[C@H](CC(N)=O)NC(=O)[C@H](CC(C)C)NC(=O)[C@H](Cc2ccc(O)cc2)NC(=O)CN(CCCc2ccccc2)C(=O)[C@H](CC(=O)O)NC(=O)[C@H](Cc2ccc(O)cc2)NC(=O)[C@H](Cc2ccccc2)NC(=O)CSC[C@@H](C(=O)NCC(N)=O)NC(=O)[C@H](CO)NC(=O)[C@H](C(C)C)NC(=O)[C@@H]2CCCN2C1=O [Example 1085] ({CH2CO}-FYD[N(3-phenylpropyl)Gly]YLN[Orn][NMeNle][Ahp(2)]PVSCG-NH2; thioether N-14)

- IC50 (the 19th table, scaffold drawing 22, read-out: HC CBA mVISTA IC50): 21.2 nM
SMILES: CCCCCCN1CC(=O)N[C@@H](Cc2ccc(O)cc2)C(=O)N[C@@H](CCCC)C(=O)N[C@@H](CC(N)=O)C(=O)N[C@@H](CCCNC(N)=O)C(=O)N(C)[C@@H](CCCC)C(=O)N[C@@H](CCCCC)C(=O)N2CCC[C@H]2C(=O)N[C@@H](C(C)C)C(=O)N[C@@H](CC(=O)O)C(=O)N[C@H](C(=O)NCC(=O)O)CSCC(=O)N[C@@H](Cc2cccc(C)c2)C(=O)N[C@@H](Cc2c[nH]c3ccccc23)C(=O)N[C@@H](CC(=O)O)C1=O [compound 1443] ({CH2CO}-[Phe(3-Me)]WD[NHexGly]Y[Nle]N[Cit][NMeNle][Ahp(2)]PVDCG-OH; thioether N-14)

SMILES: CCCCCCN1CC(=O)N[C@@H](Cc2ccc(O)cc2)C(=O)N[C@@H](CC(C)C)C(=O)N[C@@H](CC(N)=O)C(=O)N[C@@H](CCCNC(=N)N)C(=O)N(C)[C@@H](CCCC)C(=O)N[C@@H](CCCCC)C(=O)N2CCC[C@H]2C(=O)N[C@@H](C(C)(C)C)C(=O)N[C@@H](CO)C(=O)N[C@H](C(=O)NCC(N)=O)CSCC(=O)N[C@@H](Cc2ccccc2)C(=O)N[C@@H](Cc2cccc(Br)c2)C(=O)N[C@@H](CC(=O)O)C1=O [compound 1203] ({CH2CO}-F[Phe(3-Br)]D[NHexGly]YLNR[NMeNle][Ahp(2)]P[Tle]SCG-NH2; thioether N-14)
- IC50 (read-out: HC CBA mVISTA IC50): 50.7 nM

- IC50 (read-out: HC CBA mVISTA IC50): 18.8 nM
SMILES: CCCCCCN1CC(=O)N[C@@H](Cc2ccc(O)cc2)C(=O)N[C@@H](CC(C)C)C(=O)N[C@@H](CC(N)=O)C(=O)N[C@@H](CCCNC(=N)N)C(=O)N(C)[C@@H](CC(C)C)C(=O)N[C@@H](CCCCC)C(=O)N2CCC[C@H]2C(=O)N[C@@H](C(C)(C)C)C(=O)N[C@@H](CO)C(=O)N[C@H](C(=O)NCCOCCOCC(=O)N[C@@H](CCC(=O)NCCOCCOCC(=O)NCCCCCCCCCCC(=O)O)C(=O)O)CSCC(=O)N[C@@H](Cc2ccccc2)C(=O)N[C@@H](Cc2ccc(O)cc2)C(=O)N[C@@H](CC(=O)O)C1=O [compound 2270] ({CH2CO}-FYD[NHexGly]YLNR[NMeL][Ahp(2)]P[Tle]SC[AEEA][γGlu][AEEA][Aun]-OH; thioether N-14)

- IC50 [2]: 3.6 nM
SMILES: CCCCCCN1CC(=O)N[C@@H](Cc2ccc(O)cc2)C(=O)N[C@@H](CCCC)C(=O)N[C@@H](CC(N)=O)C(=O)N[C@@H](CCCNC(=N)N)C(=O)N[C@@H](CC(C)C)C(=O)N[C@@H](CCCCC)C(=O)N2CCC[C@H]2C(=O)N[C@@H](C(C)C)C(=O)N[C@@H](CC(=O)O)C(=O)N[C@H](C(=O)NCC(=O)O)CSCC(=O)N[C@@H](Cc2ccc3ccccc3c2)C(=O)N[C@@H](Cc2cn(C)c3ccccc23)C(=O)N[C@@H](CC(=O)O)C1=O [compound 1454] ({CH2CO}-[2Nal][Trp(1-Me)]D[NHexGly]Y[Nle]NRL[Ahp(2)]PVDCG-OH; thioether N-14)

- IC50 (read-out: HC CBA mVISTA IC50): 12.5 nM
SMILES: CCCCCCN1CC(=O)N[C@@H](Cc2ccc(O)cc2)C(=O)N[C@@H](CCCC)C(=O)N[C@@H](CC(=O)O)C(=O)N[C@@H](CCCNC(=N)N)C(=O)N(C)[C@@H](CCCC)C(=O)N[C@@H](CCCCC)C(=O)N2CCC[C@H]2C(=O)N[C@@H](C(C)C)C(=O)N[C@@H](CC(=O)O)C(=O)N[C@H](C(=O)NC(CC(=O)O)C(N)=O)CSCC(=O)N[C@@H](Cc2ccccc2)C(=O)N[C@@H](Cc2cccc(C)c2)C(=O)N[C@@H](CC(=O)O)C1=O (some centres unmarked) [compound 1342] ({CH2CO}-F[Phe(3-Me)]D[NHexGly]Y[Nle]DR[NMeNle][Ahp(2)]PVDC[ξD]-NH2; thioether N-14)

- IC50 (cell-based binding high-content assay, mVISTA, read-out: HC CBA miPrISTA IC50): 27.8 nM
SMILES: CCCCCCN1CC(=O)N[C@@H](Cc2ccc(O)cc2)C(=O)N[C@@H](CC(C)C)C(=O)N[C@@H](CC(N)=O)C(=O)N[C@@H](CCCNC(=N)N)C(=O)N(C)[C@@H](CO)C(=O)N[C@@H](CCCCC)C(=O)N2CCC[C@H]2C(=O)N[C@@H](C(C)(C)C)C(=O)N[C@@H](CC(=O)O)C(=O)N[C@H](C(=O)N[C@@H](CC(=O)NCCOCCOCC(=O)N[C@@H](CC(=O)O)C(=O)NCCOCCOCC(=O)NCCCCCCCCCCC(=O)O)C(=O)O)CSCC(=O)N[C@@H](Cc2cccc(C)c2)C(=O)N[C@@H](Cc2ccc(O)cc2)C(=O)N[C@@H](CC(=O)O)C1=O [compound 2071] ({CH2CO}-[Phe(3-Me)]YD[NHexGly]YLNR[NMeS][Ahp(2)]P[Tle]DC[βAsp][AEEA]D[AEEA][Aun]-OH; thioether N-14)

- IC50 [1]: 34.7 nM
SMILES: CCCCC[C@@H]1NC(=O)[C@H](CCCC)N(C)C(=O)[C@H](CCCNC(=N)N)NC(=O)[C@H](CC(N)=O)NC(=O)[C@H](CC(C)C)NC(=O)[C@H](Cc2ccc(O)cc2)NC(=O)CN(CCCc2ccccc2)C(=O)[C@H](CC(=O)O)NC(=O)[C@H](Cc2ccc(O)cc2)NC(=O)[C@H](Cc2ccccc2)NC(=O)CSC[C@@H](C(=O)NCC(N)=O)NC(=O)[C@H](CO)NC(=O)[C@H](C(C)(C)C)NC(=O)[C@@H]2CCCN2C1=O [Example 1087] ({CH2CO}-FYD[N(3-phenylpropyl)Gly]YLNR[NMeNle][Ahp(2)]P[Tle]SCG-NH2; thioether N-14)

- IC50 [1]: 31 nM
SMILES: CCCCCCN1CC(=O)N[C@@H](Cc2ccc(O)cc2)C(=O)N[C@@H](CCCC)C(=O)NCC(=O)N[C@@H](CCCNC(=N)N)C(=O)N[C@@H](CC(C)C)C(=O)N[C@@H](CCCCC)C(=O)N2CCC[C@H]2C(=O)N[C@@H](C(C)C)C(=O)NCC(=O)N[C@H](C(=O)NCC(=O)O)CSCC(=O)N[C@@H](Cc2ccccc2)C(=O)N[C@@H](Cc2ccc(O)cc2)C(=O)N[C@@H](CC(=O)O)C1=O [Example 1023] ({CH2CO}-FYD[NHexGly]Y[Nle]GRL[Ahp(2)]PVGCG-OH; thioether N-14)
